Reference: ChEMBL document CHEMBL1201862, “PubChem BioAssay data set” (2004)
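Step 1: Grow cells in 96-well plates. Step 2: Expose to compound for 48 hours at 5 concentrations. Step 3: Interpolate endpoints linearly; if unreached, use highest concentration. GI50 = concentration required for 50% inhibition of growth.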 Activity calls are given as the source filed them. Rule as the data show it: active = GI50 up to about 1.1 µM and inactive = higher.

What was measured:
Experiment in all cases: NCI anticancer screen, dose series, 48 h
PC-3 = system: PC-3
SR = system: SR
SNB-19 = system: SNB-19
SK-MEL-2 = system: SK-MEL-2
HL-60 = system: HL-60
SF-268 = system: SF-268
SNB-75 = system: SNB-75
HT-29 = system: HT-29
OVCAR-8 = system: OVCAR-8
LOX IMVI = system: LOX IMVI
HCC 2998 = system: HCC 2998
UACC-62 = system: UACC-62
DU-145 = system: DU-145
U-251 = system: U-251
SW-620 = system: SW-620
SN12C = system: SN12C
K562 = system: K562
Malme-3M = system: Malme-3M
CAKI-1 = system: CAKI-1
MCF7 = system: MCF7

Structure (SMILES)	GI50 (PC-3)	GI50 (SR)	GI50 (SNB-19)	GI50 (SK-MEL-2)	GI50 (HL-60)	GI50 (SF-268)	GI50 (SNB-75)	GI50 (HT-29)	GI50 (OVCAR-8)	GI50 (LOX IMVI)	GI50 (HCC 2998)	GI50 (UACC-62)	GI50 (DU-145)	GI50 (U-251)	GI50 (SW-620)	GI50 (SN12C)	GI50 (K562)	GI50 (Malme-3M)	GI50 (CAKI-1)	GI50 (MCF7)
CC(C)(C)OC(=O)N1C(=O)C2CCCC21 (centres undefined)	> 100 µM (inactive)	> 100 µM (inactive)	> 100 µM (inactive)	> 100 µM (inactive)	> 100 µM (inactive)	> 100 µM (inactive)	> 100 µM (inactive)	> 100 µM (inactive)	> 100 µM (inactive)	> 100 µM (inactive)	> 100 µM (inactive)	> 100 µM (inactive)	> 100 µM (inactive)	> 100 µM (inactive)	> 100 µM (inactive)	> 100 µM (inactive)	–	–	–	–
NC1CCCCC1.O=C(CP(=O)(O)O)NC(CC(=O)OCc1ccccc1)C(=O)OCc1ccccc1 (centres undefined)	24.2 µM (inactive)	> 100 µM (inactive)	> 100 µM (inactive)	4.85 µM (inactive)	> 100 µM (inactive)	> 100 µM (inactive)	4.1 µM (inactive)	> 100 µM (inactive)	> 100 µM (inactive)	–	> 100 µM (inactive)	> 100 µM (inactive)	> 100 µM (inactive)	> 100 µM (inactive)	> 100 µM (inactive)	> 100 µM (inactive)	> 100 µM (inactive)	> 100 µM (inactive)	> 100 µM (inactive)	–
Cc1ccc2c(=O)c(-c3nnsn3)c[nH]c2n1	> 100 µM (inactive)	–	> 100 µM (inactive)	> 100 µM (inactive)	> 100 µM (inactive)	> 100 µM (inactive)	–	> 100 µM (inactive)	> 100 µM (inactive)	> 100 µM (inactive)	–	> 100 µM (inactive)	> 100 µM (inactive)	> 100 µM (inactive)	> 100 µM (inactive)	> 100 µM (inactive)	> 100 µM (inactive)	> 100 µM (inactive)	> 100 µM (inactive)	> 100 µM (inactive)
CCSC1=N/C(=C\c2ccccc2O)C(Nc2ccc(C)cc2)=N1	25.9 µM (inactive)	–	45.8 µM (inactive)	19.6 µM (inactive)	39 µM (inactive)	71.8 µM (inactive)	46.1 µM (inactive)	> 100 µM (inactive)	80.4 µM (inactive)	> 100 µM (inactive)	–	> 100 µM (inactive)	90.2 µM (inactive)	41.9 µM (inactive)	50.6 µM (inactive)	66.7 µM (inactive)	28.2 µM (inactive)	33.3 µM (inactive)	86.1 µM (inactive)	–
Cc1cccc(NC2=NCCO2)c1Cl	–	> 100 µM (inactive)	> 100 µM (inactive)	–	> 100 µM (inactive)	> 100 µM (inactive)	> 100 µM (inactive)	> 100 µM (inactive)	> 100 µM (inactive)	–	> 100 µM (inactive)	> 100 µM (inactive)	> 100 µM (inactive)	> 100 µM (inactive)	> 100 µM (inactive)	> 100 µM (inactive)	> 100 µM (inactive)	> 100 µM (inactive)	–	> 100 µM (inactive)
CCCC(=O)NC(Nc1ccc(S(=O)(=O)Nc2nc(C)cc(C)n2)cc1)(C(F)(F)F)C(F)(F)F	> 100 µM (inactive)	> 100 µM (inactive)	> 100 µM (inactive)	> 100 µM (inactive)	> 100 µM (inactive)	> 100 µM (inactive)	> 100 µM (inactive)	> 100 µM (inactive)	> 100 µM (inactive)	> 100 µM (inactive)	> 100 µM (inactive)	> 100 µM (inactive)	> 100 µM (inactive)	> 100 µM (inactive)	> 100 µM (inactive)	> 100 µM (inactive)	> 100 µM (inactive)	> 100 µM (inactive)	> 100 µM (inactive)	–
N=c1nc(N)nc(N)n1-c1ccc(S(N)(=O)=O)cc1	> 100 µM (inactive)	> 100 µM (inactive)	> 100 µM (inactive)	> 100 µM (inactive)	> 100 µM (inactive)	> 100 µM (inactive)	–	> 100 µM (inactive)	> 100 µM (inactive)	> 100 µM (inactive)	–	> 100 µM (inactive)	> 100 µM (inactive)	> 100 µM (inactive)	> 100 µM (inactive)	> 100 µM (inactive)	> 100 µM (inactive)	> 100 µM (inactive)	> 100 µM (inactive)	–
CCN(CC(=O)O)CC(=O)O	> 100 µM (inactive)	–	> 100 µM (inactive)	> 100 µM (inactive)	–	> 100 µM (inactive)	> 100 µM (inactive)	> 100 µM (inactive)	> 100 µM (inactive)	> 100 µM (inactive)	> 100 µM (inactive)	> 100 µM (inactive)	> 100 µM (inactive)	> 100 µM (inactive)	> 100 µM (inactive)	> 100 µM (inactive)	> 100 µM (inactive)	> 100 µM (inactive)	> 100 µM (inactive)	> 100 µM (inactive)
COc1ccc(/C=C2\CN(C)Cc3c2nc(O)c(C#N)c3-c2ccc(OC)cc2)cc1	44.4 µM (inactive)	–	34.5 µM (inactive)	94 µM (inactive)	13.3 µM (inactive)	26.7 µM (inactive)	–	38.5 µM (inactive)	31.3 µM (inactive)	92.7 µM (inactive)	–	> 100 µM (inactive)	97.5 µM (inactive)	80.2 µM (inactive)	> 100 µM (inactive)	42.5 µM (inactive)	57.5 µM (inactive)	12.5 µM (inactive)	> 100 µM (inactive)	16.5 µM (inactive)
COC(=O)/C=C(\C)CC(O)/C=C(\C)CCC=C(C)C (centres undefined)	29.8 µM (inactive)	23 µM (inactive)	> 100 µM (inactive)	19.1 µM (inactive)	17.4 µM (inactive)	–	9.44 µM (inactive)	24.1 µM (inactive)	22.3 µM (inactive)	29.4 µM (inactive)	27.9 µM (inactive)	40.7 µM (inactive)	–	42.7 µM (inactive)	60.8 µM (inactive)	> 100 µM (inactive)	32.1 µM (inactive)	39.6 µM (inactive)	92.7 µM (inactive)	31.4 µM (inactive)
COC(=O)/C=C(\S/C=C(/c1ccccc1)N1CCn2c(C(=O)c3ccccc3)c(C(=O)OC)c(C(=O)OC)c21)C(=O)OC	6.25 µM (inactive)	2.61 µM (inactive)	> 10 µM (inactive)	> 10 µM (inactive)	0.531 µM (active)	–	> 10 µM (inactive)	2.77 µM (inactive)	1.73 µM (inactive)	1.47 µM (inactive)	> 10 µM (inactive)	> 10 µM (inactive)	–	3.93 µM (inactive)	0.565 µM (active)	5.05 µM (inactive)	3.53 µM (inactive)	2.2 µM (inactive)	4.04 µM (inactive)	1.42 µM (inactive)
CCOC(=O)c1c(NNc2ccccc2)nc2ccccc2c1-c1ccccc1	–	21.4 µM (inactive)	41.8 µM (inactive)	17.2 µM (inactive)	15.8 µM (inactive)	31.1 µM (inactive)	36.8 µM (inactive)	32.3 µM (inactive)	20.4 µM (inactive)	20.2 µM (inactive)	55 µM (inactive)	16.6 µM (inactive)	–	34.4 µM (inactive)	50.4 µM (inactive)	30.6 µM (inactive)	22.5 µM (inactive)	29.1 µM (inactive)	37.1 µM (inactive)	–
CN1CC(c2ccccc2)=CC2=C1C=CC(=N)/C2=N\N	> 100 µM (inactive)	> 100 µM (inactive)	86.9 µM (inactive)	48.2 µM (inactive)	–	> 100 µM (inactive)	20.9 µM (inactive)	> 100 µM (inactive)	> 100 µM (inactive)	> 100 µM (inactive)	> 100 µM (inactive)	> 100 µM (inactive)	–	> 100 µM (inactive)	> 100 µM (inactive)	> 100 µM (inactive)	> 100 µM (inactive)	42.3 µM (inactive)	5.46 µM (inactive)	> 100 µM (inactive)
Oc1ccc2ccccc2c1CCc1c(O)ccc2ccccc12	13.9 µM (inactive)	12 µM (inactive)	16.9 µM (inactive)	–	22.8 µM (inactive)	11 µM (inactive)	3.66 µM (inactive)	4.41 µM (inactive)	14.5 µM (inactive)	14.3 µM (inactive)	3.81 µM (inactive)	9.29 µM (inactive)	–	13.3 µM (inactive)	14.2 µM (inactive)	11.2 µM (inactive)	7.55 µM (inactive)	13.4 µM (inactive)	7.45 µM (inactive)	12.7 µM (inactive)
COc1cc(Oc2c(C)c(Cl)c(OC)c(Cl)c2OC)c2c(c1Cl)COC2=O	–	3.85 µM (inactive)	42.2 µM (inactive)	–	7.78 µM (inactive)	21.8 µM (inactive)	41.9 µM (inactive)	9.23 µM (inactive)	17.6 µM (inactive)	17 µM (inactive)	26.6 µM (inactive)	33.7 µM (inactive)	52.6 µM (inactive)	29.8 µM (inactive)	52 µM (inactive)	17.4 µM (inactive)	2.32 µM (inactive)	15.2 µM (inactive)	10.4 µM (inactive)	14.4 µM (inactive)
Cc1n[n+](CC(=O)c2ccccc2)c2sc(N)nn12	> 100 µM (inactive)	–	> 100 µM (inactive)	> 100 µM (inactive)	–	> 100 µM (inactive)	> 100 µM (inactive)	> 100 µM (inactive)	> 100 µM (inactive)	> 100 µM (inactive)	–	> 100 µM (inactive)	> 100 µM (inactive)	> 100 µM (inactive)	> 100 µM (inactive)	> 100 µM (inactive)	> 100 µM (inactive)	> 100 µM (inactive)	> 100 µM (inactive)	> 100 µM (inactive)
